Results from US20120165304A1, “6,7,8,9-Tetrahydro-5H-1,4,7,10a-tetraaza-cyclohept[f]indene derivatives, pharmaceutical compositions containing these compounds, their use and processes for preparing them” (BOEHRINGER INGELHEIM INTERNATIONAL GMBH, priority 2008, published 2012).

Biological target: human 5-HT2C receptor (Homo sapiens, UniProt P28335, I156V/I160V/N158S)
Assay: cell-based

Chain of human 5-HT2C receptor (P28335 33-458 I156V/N158S/I160V limits assumed): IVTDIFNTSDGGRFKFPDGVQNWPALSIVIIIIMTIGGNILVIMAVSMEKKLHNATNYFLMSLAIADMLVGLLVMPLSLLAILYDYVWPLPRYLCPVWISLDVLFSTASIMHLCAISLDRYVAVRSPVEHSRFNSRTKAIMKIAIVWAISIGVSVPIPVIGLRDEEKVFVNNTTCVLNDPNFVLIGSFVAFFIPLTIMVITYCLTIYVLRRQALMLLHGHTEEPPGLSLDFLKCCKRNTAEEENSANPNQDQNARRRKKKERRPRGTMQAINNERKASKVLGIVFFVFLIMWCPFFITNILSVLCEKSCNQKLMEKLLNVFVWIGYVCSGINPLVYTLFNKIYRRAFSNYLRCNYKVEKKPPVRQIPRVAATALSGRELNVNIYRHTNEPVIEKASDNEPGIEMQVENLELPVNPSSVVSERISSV

Compound | EC50
CC(C)(C)N1CCC2(CCN(c3c4c(nc5ccnn35)CCNCC4)CC2)C1=O [Example 1.65] | 4900 nM
Brc1cnn2c(N3CC(Oc4ccccc4)C3)c3c(nc12)CCNCC3 [Example 2.1] | 7 nM
Cc1cnn2c(N3CC(C(=O)N4CCC5(CCOC5)CC4)C3)c3c(nc12)CCNCC3 [Example 31.240] | 29 nM
Cc1cnn2c(N3CC(C(=O)N4CCC(c5ccccc5F)CC4)C3)c3c(nc12)CCNCC3 [Example 31.243] | 82 nM
Clc1ccncc1OC1CN(c2c3c(nc4ccnn24)CCNCC3)C1 [Example 35.35] | 67 nM
CN(C(=O)C1CCCN(c2c3c(nc4ccnn24)CCNCC3)C1)c1ccccc1 (stereo not drawn) [Example 1.60] | 1590 nM
c1ccc(C(OC2CCCN(c3c4c(nc5ccnn35)CCNCC4)C2)c2ccccc2)cc1 (stereo not drawn) [Example 1.37] | 1300 nM
CC1(C)CN(C(=O)C2CN(c3c4c(nc5ccnn35)CCNCC4)C2)Cc2ccccc21 [Example 31.177] | 623 nM
O=C(C1CN(c2c3c(nc4ccnn24)CCNCC3)C1)N1CCC(c2ccc(F)cc2F)CC1 [Example 31.114] | 38 nM
CC(=O)NC1CCN(C(=O)C2CN(c3c4c(nc5ccnn35)CCNCC4)C2)CC1 [Example 37.29] | 10 nM
c1cncc(OC2CN(c3c4c(nc5ccnn35)CCNCC4)C2)c1 [Example 35.42] | 212 nM
O=C(O)C1CN(c2c3c(nc4ccnn24)CCNCC3)C1 [Example 1.14] | 1340 nM
O=C(C1CN(c2c3c(nc4ccnn24)CCNCC3)C1)N1CCC2(CCCc3ccccc32)C1 (stereo not drawn) [Example 31.222] | 96 nM
c1cc2nc3c(c(N4CC(OCC5CCCCC5)C4)n2n1)CCNCC3 [Example 20.4] | 543 nM
C[C@H](c1ccccc1)N(C)C(=O)C1CN(c2c3c(nc4ccnn24)CCNCC3)C1 [Example 31.90] | 465 nM
O=C1CCCN1c1ccc(OC2CN(c3c4c(nc5ccnn35)CCNCC4)C2)c(Cl)c1 [Example 35.26] | 115 nM
CCC1CCN(C(=O)C2CN(c3c4c(nc5ccnn35)CCNCC4)C2)CC1 [Example 31.68] | 46 nM

Compound | EC50
CC1CNCCc2c1nc1ccnn1c2N1CCCCC1 (stereo not drawn) [Example 3, 5-Methyl-10-piperidin-1-yl-6,7,8,9-tetrahydro-5H-1,4,7,10a-tetraaza-cyclohepta[f]indene] | 1810 nM
COC[C@H]1CCCN1c1c2c(nc3ccnn13)CCNCC2 [Example 1.12] | 507 nM
C[C@@H](NC(=O)C1CN(c2c3c(nc4ccnn24)CCNCC3)C1)C1CCCCC1 [Example 31.188] | 101 nM
O=C(C1CN(c2c3c(nc4ccnn24)CCNCC3)C1)N1CCC2(CCOC2)CC1 [Example 31.57] | 37 nM
OC1CN(c2c3c(nc4ccnn24)CCNCC3)C1 [Example 1.2] | 127 nM
O=C(C1CN(c2c3c(nc4c(Br)cnn24)CCNCC3)C1)N1CCC2(CCC2)C1 [Example 31.133] | 60 nM
Cc1ccc(OCC2CN(c3c4c(nc5ccnn35)CCNCC4)C2)c(F)c1F [Example 15.10] | 20 nM
FC1(F)CN(c2c3c(nc4ccnn24)CCNCC3)C1 [Example 1.4] | 2420 nM
CCOc1ccc(OC2CN(c3c4c(nc5ccnn35)CCNCC4)C2)cc1 [Example 35.53] | 324 nM
O=C(C1CN(c2c3c(nc4ccnn24)CCNCC3)C1)N1C2CCCCC1CCC2 [Example 31.158] | 1230 nM
CC(C)C(NC(=O)C1CN(c2c3c(nc4ccnn24)CCNCC3)C1)C(F)(F)F (stereo not drawn) [Example 37.104] | 106 nM
Cc1ccccc1OC1CN(c2c3c(nc4ccnn24)CCNCC3)C1 [Example 35.5] | 112 nM
CN1CCc2nc3ccnn3c(N3CC(C(=O)N4CCCNCC4)C3)c2CC1 [Example 36.59] | 173 nM
C#CC(C)NC(=O)C1CN(c2c3c(nc4ccnn24)CCNCC3)C1 (stereo not drawn) [Example 37.109] | 79 nM
CN1CCc2nc3ccnn3c(N3CC(C(=O)N4CCN(C(=O)C5CCCCC5)CC4)C3)c2CC1 [Example 36.22] | 181 nM
O=C1CN(C(=O)C2CN(c3c4c(nc5ccnn35)CCNCC4)C2)CCN1 [Example 37.12] | 27 nM
